Assay results published in patent US20110312945A1, “CRTH2 MODULATORS” (priority 2008, published 2011).

What was measured:
CRTH2 [1] = molecular target: T1, CRTH2 (Homo sapiens, UniProt Q9Y5Y4); experiment: Human Whole Blood CD11b Antagonist Assay; assay type: cell-based; conditions: eosinophil CD11b expression, challenge with 15R-Methyl-PGD2 (10 nM)
T1 construct: polymorphonuclear cells (0.5 ml; 10^6/ml cells) in PBS containing 0.9 mM CaCl2 and 0.5 mM MgCl2; endogenous in cells; host or cells: polymorphonuclear cells (eosinophils gated by flow cytometry)
T1 sequence (Q9Y5Y4 1-395): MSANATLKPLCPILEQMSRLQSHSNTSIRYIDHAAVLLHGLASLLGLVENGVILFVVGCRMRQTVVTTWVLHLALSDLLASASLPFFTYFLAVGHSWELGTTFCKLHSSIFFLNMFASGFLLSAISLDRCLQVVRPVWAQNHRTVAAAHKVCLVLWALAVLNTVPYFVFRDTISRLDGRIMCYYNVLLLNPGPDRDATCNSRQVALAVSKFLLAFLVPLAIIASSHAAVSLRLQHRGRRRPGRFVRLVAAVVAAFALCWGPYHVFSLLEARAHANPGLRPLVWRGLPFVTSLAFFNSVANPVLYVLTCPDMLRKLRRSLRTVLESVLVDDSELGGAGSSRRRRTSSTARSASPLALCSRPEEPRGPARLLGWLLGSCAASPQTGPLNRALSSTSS
Procedure: Human Whole Blood CD11b Antagonist Assay (modified from Nicholson, et al. Pulmonary Pharmacology and Therapeutics: 20 (2007); 52-59). The potential CRTH2 antagonist activity of certain compounds was tested in human whole blood using an assay that tests the ability of the compounds to block the CD11b expression in eosinophils by 15-R-methyl-PGD2. A CRTH2 antagonist should block CD11b expression by subsequently added 15-Methyl-PGD2. Human whole blood (200 μL) was incubated at 37° C. for 10 minutes in the presence of various concentrations of test compounds before being challenged with the agonist 15R-Methyl-PGD2 (10 nM). Reactions were terminated by the addition of ice-cold PBS+0.5% BSA+2 mMEDTA (1 mL) and centrifugation (300×g for 5 minutes at 4° C.) Cells were then incubated at 4° C. for 10 min in the presence of human IgG. Cells were then incubated for 30-45 min with a mixture of PE-Cy5-labeled mouse anti-human CD16 (10 ul; BD Biosciences) and FITC-labeled mouse anti-human CD11b (10 μL; Beckman Coulter.) After rinsing (1 mL ice-cold PBS+0.5% BSA+2 mMEDTA), red blood cells were lysed by the addition of 1 mL ice-cold H2O to the cell pellet for 30 sec-1 min immediately followed by the addition of 3.5% NaCl (300 μL.) Cells were then rinsed (2x−1 ml ice cold PBS+0.5% BSA+2 mMEDTA) and fixed in PBS containing 1% formaldehyde. The distribution of fluorescence intensities was measured by flow cytometry. Eosinophils were gated out on the basis of their granularity (high side scatter) and absence of CD-16. CD11b was then measured on this eosinophil population on the basis of fluorescence due to FITC.

CRTH2 [2] = molecular target: T1, CRTH2; experiment: DPBS CD11b Antagonist Assay; assay type: cell-based; conditions: polymorphonuclear cells in PBS, eosinophil CD11b expression, challenge with 15R-Methyl-PGD2 (10 nM)
Procedure: DPBS CD11b Antagonist Assay. The potential CRTH2 antagonist activity of certain compounds was tested using a CD11b expression assay using essentially the method described by Monneret et al. (J Pharmacol Exp Ther 304:349-55, 2003). Briefly, polymorphonuclear cells (0.5 ml; 10^6/ml cells) in PBS containing 0.9 mM CaCl2 and 0.5 mM MgCl2) were preincubated with various concentrations of test compounds at room temperature for 10 minutes before they were challenged with the agonist 15R-Methyl-PGD2 (10 nM). The incubations were terminated by the addition of ice-cold FACSFlow (BD Biosciences; Cat# 342003) and centrifugation (400 g for 5 minutes at 4° C.). The cells were then incubated for 30 minutes at 4° C. with a mixture of PE-labeled mouse anti-human VLA-4 (5 μl; BD Biosciences) and FITC-labeled mouse anti-human CD11b (10 μl; Beckman Coulter). The cells were then incubated with Optilyse C (0.25 ml; Beckman Coulter) for 15 minutes, centrifuged, and then fixed in PBS (0.4 ml; calcium and magnesium free) containing 1% formaldehyde. The distribution of fluorescence intensities among 60,000 cells was measured by flow cytometry. Eosinophils were gated out on the basis of their granularity (high side scatter) and labeling with VLA-4 (PE fluorescence). CD11b was then measured in the eosinophil region on the basis of fluorescence due to FITC. All data were corrected for the value obtained for the corresponding isotope control antibody.

Row | SMILES | IC50 (CRTH2 [1]) | IC50 (CRTH2 [2])
1 | Cc1c(Cc2ccc(S(=O)(=O)NC(C)C(C)(C)C)cc2)c2c(n1CC(=O)O)CCCC2 (stereo not drawn) [Example I-3, 2-(3-(4-(N-(3,3-Dimethylbutan-2-yl)sulfamoyl)benzyl)-2-methyl-4,5,6,7-tetrahydro-1H-indol-1-yl)acetic acid] | 5 to 100 nM | < 5 nM
2 | CCOC(=O)N1CCN(S(=O)(=O)c2ccc(Cc3c4c(n(CC(=O)O)c3C)CCCC4)cc2)CC1 [Example I-5, 2-(3-(4-(4-(Ethoxycarbonyl)piperazin-1-ylsulfonyl)benzyl)-2-methyl-4,5,6,7-tetrahydro-1H-indol-1-yl)acetic acid] | 5 to 100 nM | < 5 nM
3 | Cc1c(Cc2ccc(S(=O)(=O)N3CCOCC3)cc2)c2c(n1CC(=O)O)CCCC2 [Example I-6, 2-(2-Methyl-3-(4-(morpholinosulfonyl)benzyl)-4,5,6,7-tetrahydro-1H-indol-1-yl)acetic acid] | 100 to 500 nM | < 5 nM
4 | Cc1c(Cc2ccccc2S(=O)(=O)c2ccccc2)c2c(n1CC(=O)O)CCCC2 [Example I-7, 2-(2-methyl-3-(2-(phenylsulfonyl)benzyl)-4,5,6,7-tetrahydro-1H-indol-1-yl)acetic acid] | 5 to 100 nM | < 5 nM
5 | Cc1c(Cc2ccc(S(=O)(=O)NC3CC3)cc2)c2c(n1CC(=O)O)CCCC2 [Example I-8, 2-(3-(4-(N-Cyclopropylsulfamoyl)benzyl)-2-methyl-4,5,6,7-tetrahydro-1H-indol-1-yl)acetic acid] | 5 to 100 nM | < 5 nM
6 | Cc1c(Cc2ccc(S(=O)(=O)NC(C)C)cc2)c2c(n1CC(=O)O)CCCC2 [Example I-10, 2-(3-(4-(N-Isopropylsulfamoyl)benzyl)-2-methyl-4,5,6,7-tetrahydro-1H-indol-1-yl)acetic acid] | 100 to 500 nM | < 5 nM
7 | Cc1c(Cc2ccccc2S(=O)(=O)N2CCOCC2)c2c(n1[C@@H](C)C(=O)O)CCC(C)(C)C2 [Example I-34, (S)-2-(2,5,5-trimethyl-3-(2-(morpholinosulfonyl)benzyl)-4,5,6,7-tetrahydro-1H-indol-1-yl)propanoic acid] | > 500 nM | 5 to 100 nM
8 | CCOC(=O)Cn1c(C)c(Sc2ccc(F)cc2S(=O)(=O)N2CCCC2)c2c1CC(C)(C)CC2=O [Example I-57, Ethyl 2-(3-(4-fluoro-2-(pyrrolidin-1-ylsulfonyl)phenylthio)-2,6,6-trimethyl-4-oxo-4,5,6,7-tetrahydro-1H-indol-1-yl)acetate] | – | 5 to 100 nM
9 | COC(=O)Cn1c(C)c(Cc2ccccc2S(=O)(=O)N2CCCC2)c2c1CC(C)(C)CC2=O [Example I-58, Methyl 2-(2,6,6-trimethyl-4-oxo-3-(2-(pyrrolidin-1-ylsulfonyl)benzyl)-4,5,6,7-tetrahydro-1H-indol-1-yl)acetate] | – | 5 to 100 nM
10 | COC(=O)Cn1c(C)c(Cc2ccccc2S(=O)(=O)N2CCOCC2)c2c1CC(C)(C)CC2=O [Example I-59, methyl 2-(2,6,6-trimethyl-3-(2-(morpholinosulfonyl)benzyl)-4-oxo-4,5,6,7-tetrahydro-1H-indol-1-yl)acetate] | – | 5 to 100 nM
11 | Cc1c(Cc2ccccc2S(=O)(=O)N2CCOCC2)c2c(n1CC(=O)OC(C)C)CC(C)(C)CC2=O [Example I-60, isopropyl 2-(2,6,6-trimethyl-3-(2-(morpholinosulfonyl)benzyl)-4-oxo-4,5,6,7-tetrahydro-1H-indol-1-yl)acetate] | – | > 500 nM
12 | CCOC(=O)Cn1c(C)c(Cc2ccccc2S(=O)(=O)N(C)c2ccccc2)c2c1CC(C)(C)CC2=O [Example I-66, ethyl 2-(2,6,6-trimethyl-3-(2-(N-methyl-N-phenylsulfamoyl)benzyl)-4-oxo-4,5,6,7-tetrahydro-1H-indol-1-yl)acetate] | – | 5 to 100 nM
13 | Cc1c(Cc2ccccc2S(=O)(=O)c2cccs2)c2c(n1CC(=O)O)CC(C)(C)CC2=O [Example I-81, 2-(2,6,6-trimethyl-4-oxo-3-(2-(thiophen-2-ylsulfonyl)benzyl)-4,5,6,7-tetrahydro-1H-indol-1-yl)acetic acid] | – | < 5 nM
14 | Cc1c(Cc2ccccc2S(=O)(=O)N2CCCC2)c2c(n1CC(=O)O)CC(C)(C)C(C)(C)C2=O [Example I-95, 2-(2,5,5,6,6-pentamethyl-4-oxo-3-(2-(pyrrolidin-1-ylsulfonyl)benzyl)-4,5,6,7-tetrahydro-1H-indol-1-yl)acetic acid] | – | < 5 nM
15 | Cc1c(Cc2ccccc2S(=O)(=O)N2CCCC2)c2c(n1CC(=O)O)CC(C)(C)C(F)(F)C2=O [Example I-96, 2-(5,5-difluoro-2,6,6-trimethyl-4-oxo-3-(2-(pyrrolidin-1-ylsulfonyl)benzyl)-4,5,6,7-tetrahydro-1H-indol-1-yl)acetic acid] | – | < 5 nM

Second part, the compound after the results:

Row | IC50 (CRTH2 [1]) | IC50 (CRTH2 [2]) | SMILES
16 | 5 to 100 nM | < 5 nM | CCOC(=O)N1CCN(S(=O)(=O)c2ccc(Cc3c4c(n(CC(=O)O)c3C)CCC(C)(C)C4)cc2)CC1 [Example I-12, 2-(3-(4-(4-(Ethoxycarbonyl)piperazin-1-ylsulfonyl)benzyl)-2,5,5-trimethyl-4,5,6,7-tetrahydro-1H-indol-1-yl)acetic acid]
17 | 100 to 500 nM | < 5 nM | Cc1c(Cc2ccc(S(=O)(=O)N3CCCCC3)cc2)c2c(n1CC(=O)O)CCC(C)(C)C2 [Example I-13, 2-(2,5,5-Trimethyl-3-(4-(piperidin-1-ylsulfonyl)benzyl)-4,5,6,7-tetrahydro-1H-indol-1-yl)acetic acid]
18 | 5 to 100 nM | < 5 nM | Cc1c(Cc2ccccc2S(=O)(=O)N2CCCC2)c2c(n1CC(=O)O)CCC(C)(C)C2 [Example I-14, 2-(2,5,5-Trimethyl-3-(2-(pyrrolidin-1-ylsulfonyl)benzyl)-4,5,6,7-tetrahydro-1H-indol-1-yl)acetic acid]
19 | – | < 5 nM | Cc1c(Cc2ccccc2S(=O)(=O)N2CCCC2)c2c(n1CC(=O)OCCN1CCOCC1)CC(C)(C)CC2=O [Example I-62, 2-morpholinoethyl 2-(2,6,6-trimethyl-4-oxo-3-(2-(pyrrolidin-1-ylsulfonyl)benzyl)-4,5,6,7-tetrahydro-1H-indol-1-yl)acetate]
20 | – | > 500 nM | Cc1c(S(=O)(=O)N(C)c2ccccc2)c2c(n1CC(=O)O)CC(C)(C)CC2=O [Example I-75, 2-(2,6,6-trimethyl-3-(N-methyl-N-phenylsulfamoyl)-4-oxo-4,5,6,7-tetrahydro-1H-indol-1-yl)acetic acid]
21 | – | < 5 nM | Cc1c(Cc2ccccc2S(=O)(=O)N2CCCC2)c2c(n1CC(=O)O)CCCC2=O [Example I-77, 2-(2-methyl-4-oxo-3-(2-(pyrrolidin-1-ylsulfonyl)benzyl)-4,5,6,7-tetrahydro-1H-indol-1-yl)acetic acid]
22 | – | < 5 nM | Cc1c(Cc2ccccc2S(=O)(=O)C2CCCCC2)c2c(n1CC(=O)O)CC(C)(C)CC2=O [Example I-82, 2-(3-(2-(cyclohexylsulfonyl)benzyl)-2,6,6-trimethyl-4-oxo-4,5,6,7-tetrahydro-1H-indol-1-yl)acetic acid]
23 | – | > 500 nM | Cc1c(Cc2ccccc2S(=O)(=O)N2CCCC2)c2c(n1CC(N)=O)CC(C)(C)CC2=O [Example I-84, 2-(2,6,6-trimethyl-4-oxo-3-(2-(pyrrolidin-1-ylsulfonyl)benzyl)-4,5,6,7-tetrahydro-1H-indol-1-yl)acetamide]
